28 compounds from patent US20230399341A1, “7-PHENYL SUBSTITUTED 2-AMINOQUINAZOLINE INHIBITORS OF HPK1” (MERCK SHARP & DOHME LLC, priority 2020, published 2023) can be followed below.

In general, pIC50 refers to the IC50 on a negative log10 scale, so that one unit is a factor of ten. Read a high pIC50 as a low IC50.

pIC50: −log10 of the molar value.

The target of this assay is T1, Human HPK1, catalytic domain (Homo sapiens, UniProt Q92918).
T1 sequence (Q92918 1-346): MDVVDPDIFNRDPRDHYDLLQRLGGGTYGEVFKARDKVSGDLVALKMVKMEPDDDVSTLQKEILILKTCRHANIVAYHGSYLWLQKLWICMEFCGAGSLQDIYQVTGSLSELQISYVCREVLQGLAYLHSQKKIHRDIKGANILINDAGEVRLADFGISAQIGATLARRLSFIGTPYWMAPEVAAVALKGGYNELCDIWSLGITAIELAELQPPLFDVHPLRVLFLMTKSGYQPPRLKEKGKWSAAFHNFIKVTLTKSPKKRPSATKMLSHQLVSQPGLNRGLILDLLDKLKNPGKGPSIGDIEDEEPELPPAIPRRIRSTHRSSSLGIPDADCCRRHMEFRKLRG
Put plainly: HPK1-SLP76 TR-FRET Assay. The format is biochemical. The note with it: 75 pM HPK1, ATP 10 uM, SLP76 10 nM, 30 min pre-incubation, 60 min reaction. On the technique in general: TR-FRET usually uses a lanthanide donor and a delayed reading to cut background.

With `Cc1c(-c2cc3nc(Nc4ccccc4F)ncc3c(N)c2F)cnc2c1NCCO2` [Compound 2-22, 6-fluoro-N~2~-(2-fluorophenyl)-7-(8-methyl-2,3-dihydro-1H-pyrido[2,3-b][1,4]oxazin-7-yl)quinazoline-2,5-diamine], the negative logarithm of the IC50 (pIC50) is 9.16.
To `COc1cc2c(cc1Nc1ncc3ccc(Nc4cc(S(C)(=O)=O)ccc4C)cc3n1)CN(C)CC2` [Compound 3-24, N~2~-(6-methoxy-2-methyl-1,2,3,4-tetrahydroisoquinolin-7-yl)-N~7~-[2-methyl-5-(meth-ylsulfonyl)phenyl]quinazoline-2,7-diamine] belongs 8.59.
To `Cc1c(-c2cc3nc(Nc4cccc5c4CC(C)(C)N(C)C5)ncc3c(N)c2F)cnc2c1NCCO2` (single isomer, unassigned) [Compound 2-127] belongs 7.00; to `COc1cc2c(cc1Nc1ncc3ccc(-c4cc(C#N)ccc4F)cc3n1)CNCC2` [Compound 1-90, 4-fluoro-3-{2-[(6-methoxy-1,2,3,4-tetrahydroisoquinolin-7-yl)amino]quinazolin-7-yl}benzonitrile], 6.41; to `COc1cc2c(cc1Nc1ncc3ccc(Nc4ccc(C)c(S(N)(=O)=O)c4)cc3n1)CN(C)CC2` [Compound 3-44, 5-({2-[(6-methoxy-2-methyl-1,2,3,4-tetrahydroisoquinolin-7-yl)amino]quinazolin-7-yl}-amino)-2-methylbenzene-1-sulfonamide], 7.89.
In turn, `COC(=O)Cc1ccc(OC)c(Nc2ncc3c(N)c(F)c(-c4cnc5c(c4C)NCCO5)cc3n2)c1` [Compound 2-3, methyl (3-{[5-amino-6-fluoro-7-(8-methyl-2,3-dihydro-1H-pyrido[2,3-b][1,4]oxazin-7-yl)quinazolin-2-yl]amino}-4-methoxyphenyl)acetate] gave a pIC50 of 6.49.
To `Cc1ncccc1Nc1ncc2c(N)c(F)c(-c3cnc4c(c3C)NCCO4)cc2n1` [Compound 2-32, 6-fluoro-7-(8-methyl-2,3-dihydro-1H-pyrido[2,3-b][1,4]oxazin-7-yl)-N~2~- (2-methylpyridin-3-yl)quinazoline-2,5-diamine] belongs 9.17; to `Cc1c(-c2cc3nc(Nc4ccc(C5CCN(C)C5=O)cc4)ncc3cc2F)cnc2c1NCCO2` (single isomer, unassigned) [Compound 1-125, (R or S)-3-(4-{[6-fluoro-7-(8-methyl-2,3-dihydro-1H-pyrido[2,3-b][1,4]oxazin-7-yl)quinazolin-2-yl]amino}phenyl)-1-methylpyrrolidin-2-one], 10.22.
To `Cc1c(-c2cc3nc(Nc4cnc5c(c4)CN(C)CC5)ncc3cc2F)cnc2c1NCCO2` [Compound 1-135, 6-fluoro-7-(8-methyl-2,3-dihydro-1H-pyrido[2,3-b][1,4]oxazin-7-yl)-N-(6-methyl-5,6,7,8-tetrahydro-1,6-naphthyridin-3-yl)quinazolin-2-amine] belongs 9.32; to `COc1cc2c(cc1Nc1ncc3ccc(-c4ccc(S(N)(=O)=O)cc4C)cc3n1)CNCC2` [Compound 1-32, 4-{2-[(6-methoxy-1,2,3,4-tetrahydroisoquinolin-7-yl)amino]quinazolin-7-yl}-3-methylbenzene-1-sulfonamide], 6.97.
Then `CC(=O)N1CCCc2cc(Nc3ncc4c(N)c(F)c(-c5cnc6c(c5C)NCCO6)cc4n3)ccc21` [Compound 2-7, 1-[6-{[5-amino-6-fluoro-7-(8-methyl-2,3-dihydro-1H-pyrido[2,3-b][1,4]oxazin-7-yl)quinazolin-2-yl]amino}-3,4-dihydroquinolin-1(2H)-yl]ethan-1-one], with 9.95; and `Cc1c(-c2cc3nc(Nc4cnc5c(c4)CN(C(C)C)CC5)ncc3c(N)c2F)cnc2c1NCCO2` [Compound 2-175, 6-fluoro-7-(8-methyl-2,3-dihydro-1H-pyrido[2,3-b][1,4]oxazin-7-yl)-N~2~- [6-(propan-2-yl)-5,6,7,8-tetrahydro-1,6-naphthyridin-3-yl]quinazoline-2,5-diamine], with 10.53.
Take `COc1cc2c(cc1Nc1ncc3ccc(-c4ccc(C#N)cc4C)cc3n1)CNCC2` [Compound 1-33, 4-{2-[(6-methoxy-1,2,3,4-tetrahydroisoquinolin-7-yl)amino]quinazolin-7-yl}-3-methylbenzonitrile]: the negative logarithm of the IC50 (pIC50) is 6.87.
Consider `COc1cc2c(cc1Nc1ncc3ccc(Oc4ccc([C@H](C)N)cc4)cc3n1)CN(C)CC2` [Compound 4-8, 7-{4-[(1S)-1-aminoethyl]-phenoxy}-N-(6-methoxy-2-methyl-1,2,3,4-tetrahydro-isoquinolin-7-yl)quinazolin-2-amine], for which the negative logarithm of the IC50 (pIC50) is 8.63.
Then `COc1cc2c(cc1Nc1ncc3ccc(-c4cccc(C(N)=O)c4)cc3n1)CN(C)CC2` [Compound 1-101, 3-{2-[(6-methoxy-2-methyl-1,2,3,4-tetrahydroisoquinolin-7-yl)amino]quinazolin-7-yl}benzamide], with 6.89; and `COc1cc2c(cc1Nc1ncc3ccc(N[C@@H]4COC[C@@H]4F)cc3n1)CN(C)CC2` [Compound 3-67, N~7~-[(3R,4R)-4-fluorooxolan-3-yl]-N~2~-(6-methoxy-2-meth-yl-1,2,3,4-tetrahydroisoquinolin-7-yl)quinazoline-2,7-diamine], with 6.97.
For `Cc1c(-c2cc3nc(Nc4ccc5c(c4)C(C)(C)OC5=O)ncc3c(N)c2F)cnc2c1NCCO2` [Compound 2-41, 5-{[5-amino-6-fluoro-7-(8-methyl-2,3-dihydro-1H-pyrido[2,3-b][1,4]oxazin-7-yl)quinazolin-2-yl]amino}-3,3-dimethyl-2-benzofuran-1(3H)-one], the pIC50 is 10.12.
In the case of `CN1CCc2ccc(Nc3ncc4c(N)c(F)c(-c5cncc6[nH]ccc56)cc4n3)cc2C1` [Compound 2-139, 6-fluoro-N~2~-(2-methyl-1,2,3,4-tetrahydroisoquinolin-7-yl)-7-(1H-pyrrolo[2,3-c]pyridin-4-yl)quinazoline-2,5-diamine], the negative-log IC50 (pIC50) was 10.38.
`COc1cc2c(cc1Nc1ncc3ccc(-c4cnn(C)c4)cc3n1)CNCC2` [Compound 1-34, N-(6-methoxy-1,2,3,4-tetrahydroisoquinolin-7-yl)-7-(1-methyl-1H-pyrazol-4-yl)quinazolin-2-amine] gave a pIC50 of 8.83.
To `Cc1c(-c2cc3nc(Nc4cccnc4)ncc3c(N)c2F)cnc2c1NCCO2` [Compound 2-9, 6-fluoro-7-(8-methyl-2,3-dihydro-1H-pyrido[2,3-b][1,4]oxazin-7-yl)-N~2~- (pyridin-3-yl)quinazoline-2,5-diamine] belongs 9.89; to `COc1cc2c(cc1Nc1ncc3ccc(N4C(=O)OC[C@H]4C(C)C)cc3n1)CN(C)CC2` [Compound 3-10, (4R)-3-{2-[(6-methoxy-2-meth-yl-1,2,3,4-tetrahydroisoquinolin-7-yl)amino]quinazolin-7-yl}-4-(propan-2-yl)-1,3-oxazolidin-2-one], 6.97.
Then `COc1cc2c(cc1Nc1ncc3ccc(NCc4ccc5c(c4)S(=O)(=O)N=C(C)N5)cc3n1)CN(C)CC2` [Compound 3-25, 7-[({2-[(6-methoxy-2-methyl-1,2,3,4-tetrahydroisoquinolin-7-yl)amino]quinazolin-7-yl}-amino)methyl]-3-methyl-1lambda~6~,2,4-benzothia-diazine-1,1(4H)-dione], with 7.33.
On to `COc1cc2c(cc1Nc1ncc3c(N)c(F)c(-c4cnc5c(c4C)NCCO5)cc3n1)CCN(C)C2` [Compound 2-88, 6-fluoro-N2-(7-methoxy-2-methyl-1,2,3,4-tetrahydroisoquinolin-6-yl)-7-(8-methyl-2,3-dihydro-1H-pyrido[2,3-b][1,4]oxazin-7-yl)quinazoline-2,5-diamine], for which the negative logarithm of the IC50 (pIC50) is 9.42.
Then `COc1cc2c(cc1Nc1ncc3c(N)c(F)c(-c4cnc5c(c4C)NCCO5)c(Cl)c3n1)CN(C)CC2` [Compound 2-94, (+ or −)-8-chloro-6-fluoro-N~2~-(6-methoxy-2-methyl-1,2,3,4-tetrahydroisoquinolin-7-yl)-7-(8-methyl-2,3-dihydro-1H-pyrido[2,3-b][1,4]oxazin-7-yl)quinazoline-2,5-diamine], with 8.24; and `Cc1c(-c2c(F)c(N)c3cnc(Nc4ccc(S(C)(=O)=O)cc4)nc3c2Cl)cnc2c1NCCO2` [Compound 2-103, (+ or −)-8-chloro-6-fluoro-7-(8-methyl-2,3-dihydro-1H-pyrido[2,3-b][1,4]oxazin-7-yl)-N~2~- [4-(methylsulfonyl)phenyl] quinazoline-2,5-diamine], with 10.02; and `COc1cc(C)ccc1Nc1ncc2c(N)c(F)c(-c3cnc4c(c3C)NCCO4)cc2n1` [Compound 2-177, 6-fluoro-N~2~-(2-methoxy-4-methylphenyl)-7-(8-methyl-2,3-dihydro-1H-pyrido[2,3-b][1,4]oxazin-7-yl)quinazoline-2,5-diamine], with 8.39.
The compound `CNC(=O)C(C)c1ccc(Nc2ncc3cc(F)c(-c4cnc5c(c4C)NCCO5)cc3n2)cc1` (single isomer, unassigned) [Compound 1-116, (R or S)-2-(4-{[6-fluoro-7-(8-methyl-2,3-dihydro-1H-pyrido[2,3-b][1,4]oxazin-7-yl)quinazolin-2-yl]amino}phenyl)-N-methylpropanamide] gave a negative-log IC50 (pIC50) of 9.66.
To `Cc1c(N)cncc1-c1cc2nc(Nc3ccc4c(c3)CN(C)CC43CC3)ncc2c(N)c1F` [Compound 2-153, 7-(5-amino-4-methylpyridin-3-yl)-6-fluoro-N~2~-(2′-methyl-2′,3′-dihydro-1′H-spiro[cyclopropane-1,4′-isoquinolin]-7′-yl)quinazoline-2,5-diamine] belongs 10.33.
